Columns and labels:
[1] = tested on: IQSPHFF peptide (SEQ ID NO:1), displayed on phage; test: Binding of IQSPHFF phage to BSA-conjugated fluorochromes; settings: FIG. 3A
Protocol: FIG. 3 presents exemplary data showing molecular modeling of IQSPHFF binding to VT-680. FIG. 3A. Binding affinities of IQSPHFF phage to BSA-conjugated fluorochromes via ELISA. FIG. 3B. Schematic π-π bonding between the phenylalanines of the peptide and the indole or benzoindole subunit of VT680 FIG. 3C. […] FIG. 3D. Illustrating a possible interaction of the peptide hydrophobic isoleucine and the hydrophobic alkene of the fluorochrome.
The affinity of IQSPHFF was determined using […] for different commercially available benzindol fluorochromes (Cy 3.5, Cy 5.5, VT680 and AF750). […] FIG. 3A.
The N-hydroxysuccinimide (NHS) ester of the benzindol fluorochromes VT680, GH680, Cy3.5, Cy5.5 or AF750 (1 mg) were conjugated to bovine serum albumin (BSA 100 mg/mL; 0.3 M NaCO3 buffer, pH 8.6) under reaction conditions of approximately tenfold molar excess VT680 to BSA. BSA-fluorochrome conjugate or BSA was adsorbed (5.0 μg/0.1 ml well, w/vol) overnight to wells of a Nunc Maxisorp plage (Nunc, Rochester, N.Y.). Supernatants were discarded and washed twice with PBS and blocked (5% BSA, 0.3 M NaCO3, pH 8.6, room temperature, 45 min). […]
Readout was depicted as the mean difference between absorbances in the BSA-fluorochrome containing wells and the BSA-only (negative control) wells. […]

HT1080 cells = test: In vitro cell labeling of HT1080 cells, fluorescence plate reader; assay type: cell-based; settings: free (unconjugated) peptide
Protocol: HT1080 […] cells (20,000 cells/well) were washed 3× with PBS to remove media then incubated with 0.1 mL of […] of Ac-IQSPHFF-NHS peptide or vehicle (PBS with 1% DMSO) for 1 hour at 37° C. Subsequent to incubation, cells were washed then incubated for 1 hour at 37° C. in the dark with 1 nmole of GH680 or 1 nmole of GH680+5 nmoles of underivatized peptide (competition experiment). Cells were then washed 6× with PBS+0.1% Tween 20 and analyzed via fluorescence plate reader GeminiXS (Molecular Devices). The IQSPHFF peptide sequence was covalently conjugated onto HT1080 cells and incubated with 5 nM of NIRF (VT680). Cells conjugated with IQSPHFF bound VT680>120-fold better than cells not conjugated with IQSPHFF. In addition, free (unconjugated) IQSPHFF peptide was able to compete for 98% of the binding of fluorochrome to peptide labeled cells, indicating the specificity of the interaction. FIG. 8A.

Row | Substance | affinity of IQSPHFF, relative between fluorochromes [1] | competition of fluorochrome binding to peptide labeled cells by free peptide (HT1080 cells)
1 | Cy5.5 | approximately four-fold less biding than VT680 | –
2 | IQSPHFF | – | 98%
